Results as given in US8987263B2, “Basic esters of fatty alcohols and their use as anti-inflammatory or immunomodulatory agents” (priority 2002, dated 2015).
Read-outs that look alike come from different tables or passages of the source.

Tests used:
adjuvant arthritis (AA) = details: Lewis rats
[1] = tested on: experimental autoimmune encephalomyelitis (EAE); details: DA rats; 40 mg IV on day of immunization; vs untreated control; FIG. 2
EAE [2] = format: in vivo; details: CSJL/F1 mice, GA 5.0 mg/mouse, Compound 3 0.5 mg/mouse
Description: (§1) EAE was tested in CSJL/F1 mice, immunological response was tested in C57BL/J6 mice. Healthy, specific pathogen-free, female CSJLF/1 and male C57BL/J6 mice, were obtained from Harlan Animal Breeding Center, Jerusalem, Israel. The mice were 9-week old at the initiation of the study, weighing 20 g±15%.
(i) The mice were divided into 4 test groups as shown below:
For immunization of group 1, a GA solution in PBS (100 mg/mL) was diluted 1:2 in IFA to yield a final concentration of 50 mg/mL for injection of 5.0 mg/mouse GA (0.1 ml). The GA+IFA mixtures were transferred into a syringe (2.5 mL) connected to a second syringe through a Luer lock bridge and mixed well by transferring the material from one syringe to another for about 10 minutes until the material was well emulsified.
EAE was induced by injecting the encephalitogenic agent consisting of MSCH and commercial CFA containing Mycobacterium tuberculosis H37Ra to the foot-pads of the animals and pertussis toxin IV.
They were weighed before immunization and once a week thereafter until the termination of the study. Ten days after induction of EAE, the mice were examined for EAE clinical signs and scored. The EAE clinical signs were observed and scored from the 9th day post-EAE induction until the termination of the experiment according to the following five-graded scale to assess clinical severity: 0, normal behavior; 1, weight loss; 2, tail weakness; 3, hind legs hypotonia and weakness; 4, hind legs paralysis; 4, severe total paralysis; 5, impaired respiration and/or convulsions and/or full paralysis or death.
Calculation of mortality: The number of sick and dead animals in each group was determined, and the incidence of disease and mortality rate was calculated as follows: […]
Calculation of percent activity: The percentage activity according to mortality was calculated as follows: […]
Calculation of mean duration of disease and onset of disease: The mean duration of the disease and onset of disease expressed in days was calculated.
Calculation of the mean maximal score and percent inhibition: The maximal scores of each of the 10 mice in the test group were summed.
The mean maximal score (MMS) of the group was calculated as follows: […]
The percent inhibition was calculated as follows: […]
Calculation of the mean group score and percent inhibition: The scores of each of the 10 mice in the test group was summed.
The mean group score (GMS) of the group was calculated as follows: […]

EAE [3] = details: Lewis rats
Description: EAE is induced in 7-9 weeks old female Lewis rats by injecting each foot pad with 25 μg of guinea MBP (50 μg total) in CFA (Sigma). The disease develops about 12 days after immunization and is characterized by paralysis of various degrees due to inflammation of the central nervous system. The rats are scored for paralysis on a scale of 0-4, as described above in Example 13.
EAE was induced in 8-week-old female Lewis rats as described in Example 15 above with guinea pig MBP in CFA.
(§2) The rats were scored for EAE on a severity scale of 0-4 as described above.
as §2
Rats were treated with Compound 9 (100 mg/Kg) per os. The rats were scored for EAE on a severity scale of 0-4 as described above.

[4] = format: in vivo
Description: The mice were scored according to following chart: 0—normal behavior; 1—slight toxic signs (piloerection); 2—moderate toxic signs (partial eye lid closure, hunched posture, hypoactivity, apathy); 3—severe toxic signs (ataxia, convulsions, gasping respiration, paralysis, unconscious); 4—death. Mice were weighed before immunization and on the day of the termination of the study. […] The spleens were weighed and spleen/body weight ratio was calculated.

[5] = tested on: Spleen Cells of GA Immumized Mice; assay: IL-2 secretion from spleen cells of immunized mice (ELISA); format: cell-based, C57BL/J6 mice; set-up: IL-2 Secretion from 5 × 10^6 Spleen Cells: unit not given here
Description: as §1
(i) The mice were divided into 6 test groups as shown below:
Mice were immunized 10 days prior to spleen collection.
A solution of GA in PBS (final GA concentration of 1.5 mg/mL, for dose of 75 μg/mouse) was diluted in CFA to yield a final concentration of 0.75 mg/mL for dose of 75 μg/mouse GA. The mixtures (GA+CFA) were transferred into a syringe (2.5 mL) connected to a second syringe through a Luer lock bridge and mixed well by transferring the material from one syringe to another for about 10 minutes until the material is well emulsified.
GA (20 mg vial) was dissolved in PBS to yield 20 mg/mL solution, then further diluted in PBS to yield a final GA concentration of 1.5 mg/mL for dose of 75 μg/mouse. Equal volumes of Compound 3 and GA or PBS for control group were mixed.
Spleens were collected and pooled for each group in sterile RPMI medium. Cells were extracted resuspended in enriched DCCM1 medium and counted. […] Supernatants were collected and tested for levels of cytokines secretion.
(vii) Detection of cytokine secretion in primary cultures from spleens was performed employing ELISA. Cells were activated in-vitro and IL-2 secretion levels were detected using commercial kits according to the provider's instructions.

[6] = tested on: delayed-type hypersensitivity (DTH) reaction; assay: Oxazolone-induced DTH skin reaction, mouse ear-swelling test; format: in vivo, BALB/c mice; details: for percent inhibition of DTH reaction: read after 24 hours; for reduction of inflammation in the DTH model: 0.5, 1, 2 and 4 mg in 40 μl 30 min after challenge, dexamethazone 2 mg/40 μl, FIG. 5
Description: Delayed-type hypersensitivity (DTH), a localized inflammatory reaction induced by cytokines secreted by certain TH cells when they encounter certain types of antigens, is an established experimental model for skin inflammation.
As a first step, DTH reactions were induced in the skin of 8-week-old female BALB/c mice. The mice were sensitized by topical application of 200 μl of a 2% oxazolone (4-ethoxymethylene-2-phenyl-2-oxazolin-5-one; Sigma, St. Louis, Mo.) solution in acetone/olive oil (4:1, vol/vol) to the shaved abdomen of the mice. Six days after sensitization, one ear of each mouse was challenged by topical application of 20 μl of a 0.5% oxazolone solution.
Mice were induced with DTH as in Example 17. […] In addition, a positive control of dexamethazone (2 mg/40 μl) was administered. A group of DTH induced mice was also treated with (4-Methyl-piperazin-1-yl)-acetic acid ethyl ester HCl (negative control.)

[7] = 0.2 mg per os every day from EAE induction
[8] = 1 mg per os every day from EAE induction
[9] = 2 mg per os every day from EAE induction
[10] = 10 mg per os every day from EAE induction
[11] = 20 mg per os every day from EAE induction

## CCCCCCCC/C=C\CCCCCCCCOC(=O)CN(C)C [Compound 1, N,N-Dimethylamino-acetic acid octadec-(Z)-9-enyl ester]
Adjuvant arthritis (AA); 40 mg IV on day 0 or on day 14 after onset of AA, FIG. 1
  protection against the inflammation caused by AA (AA score 0-16): could protect the rats against the inflammation caused by AA
[1]
  prevention of paralysis (EAE score 0-4): could prevent the paralysis to a significant degree

## CCCCCCCC/C=C\CCCCCCCCOC(=O)CN1CCN(C)CC1.O=C(O)C(O)C(O)C(=O)O [Compound 3, (4-Methyl-piperazin-1-yl)-acetic acid octadec-(Z)-9-enyl ester tartrate]
EAE [2]
  GMS (group mean score) Value ± S.D.: 3.3 ± 0.6
  MMS (mean maximal score) Value ± S.D.: 4.7 ± 0.5
  Mean Duration: 4.7 ± 0.5 days
EAE [2]; SC immunization 11 days before EAE induction
  Mean onset: 10.3 ± 0.5 days
EAE [2]; vs PBS control
  GMS inhibition (inh.* 3): 3.2%
  MMS inhibition (inh.* 2): .0%
Adjuvant arthritis (AA); 10, 50, 100 or 200 mg SC at day -7 before induction, FIG. 6
  protection against AA: could protect the rats against AA
EAE [3]; [7]
  % inhibition: 28%
  Mean Clinic Score: 2.1
EAE [3]; [8]
  % inhibition: 28%
  Mean Clinic Score: 2.1
EAE [3]; [9]
  % inhibition: 14%
  Mean Clinic Score: 2.5
EAE [3]; [10]
  % inhibition: 28%
  Mean Clinic Score: 2.1
EAE [3]; [11]
  % inhibition: 41%
  Mean Clinic Score: 1.7
EAE [3]; administered subcutaneously (10-200 mg, day 7 before induction) or orally
  protection against EAE: could protect the rats against EAE
EAE [3]; per os every other day from day of EAE induction (not shown)
  effect on EAE: similarly effective
[4]; Compound 3 50 and 500 μg/mouse, with or without GA 75 μg/mouse
  effect on mice weight: no adverse effect
[4]; Compound 3 with or without GA
  signs of immunosuppression: no signs of immunosuppression
[5]; Con A as non-specific activator
  effect on non-specific Con-A activation (IL-2): no effect
[5]; GA activator conc. 2.5 (mg/mL), Comp. 3 50 μg/m (GA 75 μg/m where combined)
  IL-2 Secretion from 5 × 10^6 Spleen Cells: UQL
[5]; GA activator conc. 2.5 (mg/mL), Comp. 3 500 μg/m (GA 75 μg/m where combined)
  IL-2 Secretion from 5 × 10^6 Spleen Cells: UQL
[5]; GA activator conc. 25.0 (mg/mL), Comp. 3 50 μg/m (GA 75 μg/m where combined)
  IL-2 Secretion from 5 × 10^6 Spleen Cells: UQL
[5]; GA activator conc. 25.0 (mg/mL), Comp. 3 500 μg/m (GA 75 μg/m where combined)
  IL-2 Secretion from 5 × 10^6 Spleen Cells: 7.9
[5]; activator Con A 2.5 (mg/mL), Comp. 3 50 μg/m (GA 75 μg/m where combined)
  IL-2 Secretion from 5 × 10^6 Spleen Cells: 426.8
[5]; activator Con A 2.5 (mg/mL), Comp. 3 500 μg/m (GA 75 μg/m where combined)
  IL-2 Secretion from 5 × 10^6 Spleen Cells: 426.8
[5]; activator conc. 0, Comp. 3 50 μg/m (GA 75 μg/m where combined)
  IL-2 Secretion from 5 × 10^6 Spleen Cells: UQL
[5]; activator conc. 0, Comp. 3 500 μg/m (GA 75 μg/m where combined)
  IL-2 Secretion from 5 × 10^6 Spleen Cells: UQL
[5]; immunized with Compound 3 without GA, 50 and 500 μg/mouse
  IL-2 secretion from spleen cells in response to GA: not elevated
[6]; 1 mg topical on challenged ear 30 min after challenge
  percent inhibition of DTH reaction: 12.5%
[6]; 2 mg topical on challenged ear 30 min after challenge
  percent inhibition of DTH reaction: 8%

## CCCCCCCC/C=C\CCCCCCCCOC(=O)c1ccc(CN(C)C)cc1.Cl [Compound 5, 4-dimethylaminomethyl-benzoic acid octadec-(Z)-9-enyl ester HCl]
[6]
  reduction of inflammation in the DTH model: inhibit DTH Skin Reaction

## CCCCCCCC/C=C\CCCCCCCCOC(=O)CN1CCNCC1.O=C(O)C(O)C(O)C(=O)O [Compound 9, Piperazin-1-yl-acetic acid octadec-(Z)-9-enyl ester bitartrate]
EAE [3]; 100 mg/Kg administered orally, FIG. 9
  protection against EAE: could protect the rats against EAE
EAE [3]; 100 Mg/Kg per os
  % Sick rats: 100%
  % inhibition: 31.4%
  Mean Clinic Score: 1.93 ± 0.45
  Mean onset: 11.5
[6]
  reduction of inflammation in the DTH model: inhibit DTH Skin Reaction

## CCCCCCCC/C=C\CCCCCCCCOC(=O)C(N)c1ccccc1.Cl (stereo not drawn) [Compound 11, α-Amino-α-phenyl-acetic acid octadec-(Z)-9-enyl ester HCl salt]
[6]
  reduction of inflammation in the DTH model: inhibit DTH Skin Reaction

## C[C@@H]1C[C@H]2[C@@H]3CCC4=CC(=O)C=C[C@]4(C)[C@@]3(F)[C@@H](O)C[C@]2(C)[C@@]1(O)C(=O)CO [dexamethazone, reference compound]
[6]
  reduction of inflammation in the DTH model: positive results in reducing inflammation

## CCOC(=O)CN1CCN(C)CC1.Cl [negative control, (4-Methyl-piperazin-1-yl)-acetic acid ethyl ester HCl, reference compound]
[6]
  reduction of inflammation in the DTH model: did not show any positive results

## glatiramer acetate [GA, reference compound]
[5]; GA activator conc. 2.5 (mg/mL), mice immunized with GA 75 μg/m, no Comp. 3
  IL-2 Secretion from 5 × 10^6 Spleen Cells: 47.9
[5]; GA activator conc. 25.0 (mg/mL), mice immunized with GA 75 μg/m, no Comp. 3
  IL-2 Secretion from 5 × 10^6 Spleen Cells: 124.3
[5]; activator Con A 2.5 (mg/mL), mice immunized with GA 75 μg/m, no Comp. 3
  IL-2 Secretion from 5 × 10^6 Spleen Cells: 419.6
[5]; activator conc. 0, mice immunized with GA 75 μg/m, no Comp. 3
  IL-2 Secretion from 5 × 10^6 Spleen Cells: UQL
